Source: US11767330B2, “Citrate salt, pharmaceutical compositions, and methods of making and using the same” (Foghorn Therapeutics Inc., priority 2021, dated 2023)

What was measured:
Format in all cases: physicochemical
[1] = Physical stability by XRPD upon drying at 50° C. under vacuum and exposure to >95% RH
Protocol: (§1) X-Ray Powder Diffraction (XRPD). XRPD was performed using a Rigaku MiniFlex 600 in reflection mode (i.e., Bragg-Brentano geometry). Samples were prepared on Si zero-return wafers.
XRPD analysis was done in three stages. XRPD of the wet cake was done for all samples where solids were observed.
(§2) The solids were then exposed to >95% RH overnight. This humid environment was produced by placing a beaker of saturated potassium sulfate in water in a sealed container at RT. The materials exposed to these conditions were evaluated by XRPD, and their patterns were compared to those produced before.
as §2, with “The pattern FF-B was dried at 50° C. under vacuum for 3 h after filtration for further XRPD analysis. The solids” for “The solids”, “to those of the crystalline freebase along each step.” for “to those produced before.”

[2] = Dynamic vapor sorption (DVS) hygroscopicity
Protocol: Dynamic Vapor Sorption (DVS). DVS was performed using a Q5000SA. The sample (5-15 mg) was loaded into a metallic quartz sample pan, suspended from a microbalance, and exposed to a humidified stream of nitrogen gas. Weight changes were relative to a matching empty reference pan opposite the sample, suspended from the microbalance. One of two methods was used:
Method 1: The sample was held for a minimum of 10 min at each level and only progressed to the next humidity level if there was <0.002% change in weight between measurements (interval: 5 s) or 60 min had elapsed.

[3] = Stability at 40° C./75% RH for 1 week
Protocol: The humid environment was generated with saturated sodium chloride in water in a sealed container. After one week, the sample appeared pale-yellow upon inspection.
(§3) The one-week stability at 75% RH was also tested. In this experiment, 12 mg of the dried crystalline freebase from MeOH were weighted in a 4 mL vial and placed in a 20 mL vial set at 40° C. and 75% RH for 1 week. The humid environment was generated with saturated sodium chloride in water in a sealed container.
as §3, with “the” for “the dried”, “was” for “were”

[4] = Solid form characterisation (TGA/DSC, KF, XRPD, HPLC chemical and chiral purity); details: initial, before stability test
Protocol: Differential Scanning Calorimetry (DSC). DSC was performed using a Mettler Toledo DSC^3+. The sample (1-5 mg) was weighed directly in a 40 μL hermetic aluminum pan with a pinhole and analyzed according to the parameters in Tables 41 and 42.
High Performance Liquid Chromatography (HPLC). HPLC was conducted using an Agilent 1220 Infinity LC or Agilent 1220 Infinity 2 LC equipped with diode array detector (DAD). Flow rate range of the instrument is 0.2-5.0 mL/min, operating pressure range is 0-600 bar, temperature range is 5° C. above ambient to 60° C., and wavelength range is 190-600 nm.
Karl Fischer (KF) Titration. KF titration for water determination was performed using a Mettler Toledo C20S Coulometric KF Titrator equipped with a current generator cell with a diaphragm, and a double-platinum-pin electrode. The range of detection of the instrument is 1 ppm to 5% water. Aquastar™
CombiCoulomat fritless reagent was used in both the anode and cathode compartments. Samples of approximately 0.03-0.10 g were dissolved in the anode compartment and titrated until the solution potential dropped below 100 mV. Hydranal 1 wt. % water standard was used for validation prior to sample analysis.
Simultaneous Thermogravimetric Analysis and Differential Scanning Calorimetry (TGA and DSC). TGA and DSC were performed on the same sample simultaneously using a Mettler Toledo TGA/DSC^3+. Protective and purge gas was nitrogen at a flowrate of 20-30 mL/min and 50-100 mL/min, respectively. The desired amount of sample (5-10 mg) was weighed directly in a hermetic aluminum pan with pinhole and analyzed according to the parameters below:
as §1
XRPD was performed using a Bruker D8 Advance equipped with LYNXEYE detector in reflection mode (i.e., Bragg-Brentano geometry). Samples were prepared on Si zero-return wafers.

[5] = Forced degradation study of compound S-D1 (chiral HPLC)
Protocol: Sample solution stock was prepared by weighing 501.53 mg of compound S-D1 to a 100 mL volumetric flask, dissolving by ultrasonic in 50 mL of diluent 2, diluting to volume with diluent 2, and mixing well.
Unstressed sample solution was prepared by weighing 50.83 mg of compound S-D1 into a 100 mL volumetric flask, dissolving by ultrasonic in 50 mL of diluent 2, diluting to volume with diluent 2, and mixing well.
Sample solution for pH=4.0 solution stability was prepared as follows. 50.79 mg of compound S-D1 were weighed into a 100 mL volumetric flask, dissolved by ultrasonic in 50 mL of pH=4.0 50 mM sodium citrate buffer (see above), diluted to volume with pH=4.0 50 mM sodium citrate buffer, and mixed well.
Sample solution for pH=5.0 solution stability was prepared as follows. 50.66 mg of the compound of Formula I were weighed into a 100 mL volumetric flask, dissolved by ultrasonic in 50 mL of pH=5.0 50 mM sodium citrate buffer (see above), diluted to volume with 50 mL of pH=5.0 50 mM sodium citrate buffer and mixed well.
Sample solution for pH=7.0 solution stability was prepared as follows. 50.78 mg of compound S-D1 and 680.42 mg KH2PO4 were weighed into a 100 mL volumetric flask, dissolved by ultrasonic in 50 mL of diluent 1, transferred 29.1 mL of the 0.1N NaOH (see above), diluted to volume with diluent 1, and mixed well.
(§4) Acid degradation (1N HCl at RT). 3 mL of the sample stock solution (see above) into an 8 mL vial, added 3 mL of 2N HCl solution, and mixed well. Samples were prepared in quadruplicate and kept at room temperature (RT). At the sampling time point, 1 mL of the sample was transferred into a 5 mL volumetric flask, neutralized with 0.5 mL of […], diluted to volume with diluent 2, and mixed well.
as §4, with “Basic” for “Acid”, “(0.15N NaOH” for “(1N HCl”, “0.3N NaOH” for “2N HCl”
Thermal stress degradation (50° C. for solid). Approximately 150 mg of compound S-D1 were weighed into an 8 mL vial. Multiple samples were prepared and placed in an oven at 50° C. At the sampling time points, each of the 50.57 mg, 50.84 mg, and 50.84 mg samples were transferred into their respective 100 mL volumetric flasks, dissolved by ultrasonic in 50 mL of diluent 2, diluted to volume with diluent 2, and mixed well.
Solution Stability. The study was performed according to the conditions outlined in Table 15 using sample solution for pH=4.0 solution stability, sample solution for pH=5.0 solution stability, and sample solution for pH=7.0 solution stability (see above).

[6] = Acid Hydrolysis, 1N HCl RT, 0 h
[7] = Acid Hydrolysis, 1N HCl RT, 1 d
[8] = Acid Hydrolysis, 1N HCl RT, 2 d
[9] = Acid Hydrolysis, 1N HCl RT, 3 d
[10] = Base Hydrolysis, 0.15 N NaOH RT, 0 h
[11] = Base Hydrolysis, 0.15 N NaOH RT, 1 h
[12] = Solution Stability, pH = 4.0, 50 mM Sodium citrate buffer at RT, 0 h
[13] = Solution Stability, pH = 4.0, 50 mM Sodium citrate buffer at RT, 1 d
[14] = Solution Stability, pH = 4.0, 50 mM Sodium citrate buffer at RT, 2 d
[15] = Solution Stability, pH = 4.0, 50 mM Sodium citrate buffer at RT, 3 d
[16] = Solution Stability, pH = 5.0 50 mM Sodium citrate buffer at RT, 0 h
[17] = Solution Stability, pH = 5.0 50 mM Sodium citrate buffer at RT, 1 d
[18] = Solution Stability, pH = 5.0 50 mM Sodium citrate buffer at RT, 2 d
[19] = Solution Stability, pH = 5.0 50 mM Sodium citrate buffer at RT, 3 d
[20] = Solution Stability, pH = 7.0 Phosphate buffer at RT, 0 h
[21] = Solution Stability, pH = 7.0 Phosphate buffer at RT, 1 d
[22] = Solution Stability, pH = 7.0 Phosphate buffer at RT, 2 d
[23] = Solution Stability, pH = 7.0 Phosphate buffer at RT, 3 d

## COc1cc(-c2cn(C)c(=O)c3cnc(N4CCC4)cc23)cc(OC)c1CN1CCC(CN2CCC3(CC2)CN(c2ccc4c(c2)C(=O)N([C@@H]2CCC(=O)NC2=O)C4)C3)CC1.O=C(O)CC(O)(CC(=O)O)C(=O)O [Citrate of Compound R-D1]
[1]; after drying, Am = amorphous
  XRPD pattern Dry: Am
[1]; after exposure to humidity, Am = amorphous
  XRPD pattern Humid: Am
[1]; solid form of compound R-D1, Am = amorphous
  XRPD pattern Wet: Am
[2]
  HPLC chemical purity after DVS analysis: 99.55%
  XRPD after DVS analysis: did not show conversion to a crystalline pattern after performing the DVS analysis
  hygroscopicity according to the European Pharmacopeia standards (DVS): very hygroscopic
[2]; mass change up to 95% RH
  Hygroscopicity by DVS (up to 95% RH): >25.55 wt. %
[3]; 40° C./75% RH
  Purity by HPLC (%) After 1 week 75% RH chemical: 99.12%
[4]
  Purity by HPLC (%) [chiral]: [99.05] %
  Purity by HPLC (%) chemical: 99.46%

## COc1cc(-c2cn(C)c(=O)c3cnc(N4CCC4)cc23)cc(OC)c1CN1CCC(CN2CCC3(CC2)CN(c2ccc4c(c2)C(=O)N([C@@H]2CCC(=O)NC2=O)C4)C3)CC1 [crystal pattern FF-A]
[3]; 40° C. and 75% RH
  XRPD after storage: converted to compound R-D1, crystal pattern FF-B

## COc1cc(-c2cn(C)c(=O)c3cnc(N4CCC4)cc23)cc(OC)c1CN1CCC(CN2CCC3(CC2)CN(c2ccc4c(c2)C(=O)N([C@@H]2CCC(=O)NC2=O)C4)C3)CC1.O=C(O)CC(O)(CC(=O)O)C(=O)O [citrate-A]
[1]
  physical stability (XRPD) upon drying at 50° C. under vacuum and exposure to >95% RH: became amorphous after drying and exposure to RH

## COc1cc(-c2cn(C)c(=O)c3cnc(N4CCC4)cc23)cc(OC)c1CN1CCC(CN2CCC3(CC2)CN(c2ccc4c(c2)C(=O)N([C@H]2CCC(=O)NC2=O)C4)C3)CC1 [S-D1]
[5]; [6]
  % Degradation: 0.002%
  Area % (R-D1): 0.825%
  Area % (S-D1): 99.176%
[5]; [7]
  % Degradation: 0.005%
  Area % (R-D1): 0.828%
  Area % (S-D1): 99.172%
[5]; [8]
  % Degradation: 0.011%
  Area % (R-D1): 0.834%
  Area % (S-D1): 99.166%
[5]; [9]
  % Degradation: 0.016%
  Area % (R-D1): 0.839%
  Area % (S-D1): 99.161%
[5]; [10]
  % Degradation: 18.260%
  Area % (R-D1): 19.083%
  Area % (S-D1): 80.917%
[5]; [11]
  % Degradation: 52.210%
  Area % (R-D1): 53.033%
  Area % (S-D1): 46.967%
[5]; [12]
  % Degradation: 0.098%
  Area % (R-D1): 0.921%
  Area % (S-D1): 99.079%
[5]; [13]
  % Degradation: 0.139%
  Area % (R-D1): 0.962%
  Area % (S-D1): 99.038%
[5]; [14]
  % Degradation: 0.301%
  Area % (R-D1): 1.124%
  Area % (S-D1): 98.876%
[5]; [15]
  % Degradation: 0.482%
  Area % (R-D1): 1.305%
  Area % (S-D1): 98.695%
[5]; [16]
  % Degradation: 0.648%
  Area % (R-D1): 1.471%
  Area % (S-D1): 98.529%
[5]; [17]
  % Degradation: 1.038%
  Area % (R-D1): 1.861%
  Area % (S-D1): 98.139%
[5]; [18]
  % Degradation: 1.407%
  Area % (R-D1): 2.230%
  Area % (S-D1): 97.770%
[5]; [19]
  % Degradation: 2.002%
  Area % (R-D1): 2.825%
  Area % (S-D1): 97.175%
[5]; [20]
  % Degradation: 10.732%
  Area % (R-D1): 11.555%
  Area % (S-D1): 88.445%
[5]; [21]
  % Degradation: 18.922%
  Area % (R-D1): 19.745%
  Area % (S-D1): 80.255%
[5]; [22]
  % Degradation: 27.551%
  Area % (R-D1): 28.374%
  Area % (S-D1): 71.626%
[5]; [23]
  % Degradation: 35.103%
  Area % (R-D1): 35.926%
  Area % (S-D1): 64.074%
[5]; Thermal, 50° C. (solid), 1 d
  % Degradation: 0.178%
  Area % (R-D1): 1.001%
  Area % (S-D1): 98.999%
[5]; Thermal, 50° C. (solid), 3 d
  % Degradation: 0.331%
  Area % (R-D1): 1.154%
  Area % (S-D1): 98.847%
[5]; Thermal, 50° C. (solid), 7 d
  % Degradation: 0.380%
  Area % (R-D1): 1.203%
  Area % (S-D1): 98.797%
[5]; Unstressed
  Area % (R-D1): 0.823%
  Area % (S-D1): 99.177%
